Results: patent publication US20140377216A1, “ANTICANCER FUSION PROTEIN” (ADAMED SP. Z.O.O., priority 2011, published 2014)

Key:
Format in all cases: in vivo, Crl:SHO-PrkdcscidHrhr mice
[1] = test system: human pancreas cancer PANC-1; test: Pancreas cancer model, Experiment A: PANC-1 xenograft; details: 20 mg/kg i.v. 6 times every second day, 42 day
Protocol: (§1) Tumor size was measured using electronic calliper, tumor volume was calculated using the formula: (a^2×b)/2, where a=shorter diagonal of the tumor (mm) and b=longer diagonal of the tumor (mm). Inhibition of tumor growth was calculated using the formula:
(§2) TGI[%](Tumor growth inhibition)=(WT/WC)×100−100%
(§3) wherein WT is the average tumor volume in the treatment group, and WC is the average tumor volume in the control group.
On day 0 Crl:SHO-Prkdc^scidHr^hr mice were grafted subcutaneously (s.c.) in the right side with 5×10^6 of PANC-1 cells suspended in 0.1 ml of the mixture HBSS:Matrigel 3:1 using syringe with a needle 0.5×25 mm (Bogmark). On the 31 day of the experiment mice were randomized to obtain the average size of tumors in the group of ˜110 mm^3 and assigned to treatment groups. The treatment groups were administered with the preparations of fusion protein of the invention of Ex. 11^a (40 mg/kg), and rhTRAIL114-281 (20 mg/kg) as a comparison against formulation buffer (19 mM NaH2PO4, 81 mM Na2HPO4, 50 mM NaCl, 5 mM glutathione, 0.1 mM ZnCl2, 10% glycerol, pH 7.4) as a control. The preparations were administered intravenously (i.v) 6 times once daily every second day. On the 42 day of the experiment mice were sacrificed by disruption of the spinal cord.

[2] = test system: multidrug resistant human uterine sarcoma MES-SA/Dx5; test: Multidrug resistant uterine sarcoma model: MES-SA/Dx5 xenograft; details: 10 mg/kg i.v. 6 times every second day, 35 day
Protocol: as §1, §2, §3
On day 0 Crl:SHO-Prkdc^scidHr^hr mice were grafted subcutaneously (s.c.) in the right side with 7×10^6 of MES-SA/Dx5 cells suspended in 0.1 ml of the mixture HBSS:Matrigel 10:1 using syringe with a needle 0.5×25 mm (Bogmark). On the 19 day of the experiment mice were randomized to obtain the average size of tumors in the group of −180 mm^3 and assigned to treatment groups. The treatment groups were administered with the preparation of fusion protein of the invention of Ex. 11^a (30 mg/kg) and rhTRAIL114-281 (10 mg/kg) as a comparison against formulation buffer (19 mM NaH2PO4, 81 mM Na2HPO4, 50 mM NaCl, 5 mM glutathione, 0.1 mM ZnCl2, 10% glycerol, pH 7.4) as a control. Preparations were administered intravenously (i.v.) 6 times once daily every second day. On the 35 day of the experiment mice were sacrificed by disruption of spinal cord.

[3] = test system: human colon cancer Colo205; test: Colon cancer model, Experiment C: Colo205 xenograft; details: rhTRAIL 30 mg/kg i.v. 6 times every second day, 33 day
Protocol: as §1, §2, §3
On day 0 Crl:SHO-Prkdc^scidHr^hr mice were grafted subcutaneously (s.c.) in the right side with 5×10^6 of Colo205 cells suspended in 0.1 ml of HBSS buffer using syringe with a needle 0.5×25 mm (Bogmark). On the 13 day of the experiment mice were randomized to obtain the average size of tumors in the group of ˜115 mm^3 and assigned to treatment groups.
The treatment groups were administered with the preparations of fusion protein of the invention of Ex. 16^a (30 mg/kg), and rhTRAIL114-281 (30 mg/kg) as a comparison against formulation buffer (19 mM NaH2PO4, 81 mM Na2HPO4, 50 mM NaCl, 5 mM glutathione, 0.1 mM ZnCl2, 10% glycerol, pH 7.4) as a control. The preparations were administered intravenously (i.v) 6 times once daily every second day. On the 33 day of the experiment mice were sacrificed by disruption of spinal cord.

[4] = test system: human colon cancer HCT116; test: Colon cancer model, Experiment A: HCT116 xenograft; details: 20 mg/kg i.v. 6 times every second day, 32 day
Protocol: as §1, §2, §3
On day 0 Crl:SHO-Prkdc^scidHr^hr mice were grafted subcutaneously (s.c.) in the right side with 5×10^6 of HCT116 cells suspended in 0.1 ml of HBSS buffer using syringe with a needle 0.5×25 mm (Bogmark). On the 18 day of the experiment mice were randomized to obtain the average size of tumors in the group of −400 mm^3 and assigned to treatment groups. The treatment groups were administered with the preparations of fusion protein of the invention of Ex. 11^a (35 mg/kg), and rhTRAIL114-281 (20 mg/kg) as a comparison against formulation buffer (5 mM NaH2PO4, 95 mM Na2HPO4, 200 mM NaCl, 5 mM glutathione, 0.1 mM ZnCl2, 10% glycerol, 80 mM saccharose, pH 8.0) as a control. The preparations were administered intravenously (i.v) 6 times once daily every second day. On the 32 day of the experiment mice were sacrificed by disruption of the spinal cord.

human lung cancer A549 = test: Lung cancer model, Experiment B: A549 xenograft; details: A549, Crl:SHO mice; 20 mg/kg i.v. 6 times every second day; 34 day
Protocol: as §1, §2, §3
Experiment B. On day 0 Crl:SHO-Prkdc^scidHr^h mice were grafted subcutaneously (s.c.) in the right side with 7×10^6 of A549 cells suspended in 0.1 ml of the mixture HBSS:Matrigel 3:1 using syringe with a needle 0.5×25 mm (Bogmark). On the 17 day of the experiment mice were randomized to obtain the average size of tumors in the group of ˜100-120 mm^3 and assigned to treatment groups. The treatment groups were administered with the preparations of fusion protein of the invention of Ex. 11^a (40 mg/kg), and rhTRAIL114-281 (20 mg/kg) as a comparison against formulation buffer (19 mM NaH2PO4, 81 mM Na2HPO4, 50 mM NaCl, 5 mM glutathione, 0.1 mM ZnCl2, 10% glycerol, pH 7.4) as a control. The preparations were administered intravenously (i.v) 6 times once daily every second day. On the 34 day of the experiment mice were sacrificed by disruption of the spinal cord.

rhTRAIL114-281: recombinant human soluble TRAIL, amino acids 114-281 of hTRAIL, used as comparative reference
TGI (tumor growth inhibition) relative to the control [1]: 26%
TGI (tumor growth inhibition) relative to the control [2]: 29%
TGI (tumor growth inhibition) relative to the control [3]: 18.8%
TGI (tumor growth inhibition) relative to the control [4]: 5.6%
TGI (tumor growth inhibition) relative to the control (human lung cancer A549): 21.8%
